From EPA's ToxValDB 9.5

How the values were obtained:
Rattus norvegicus = settings: oral, gavage
Mus musculus = settings: oral
[1] = developmental, duration: 15 days, F, Body Weight: 12% decrease in maternal body weight + Developmental: 12-13% decrease in fetal body weights
[2] = developmental, duration: 15 days, F, Body Weight: 31% decrease in maternal body weight gain + Developmental: Decreases in fetal body weight (9%) and delays in hindlimb …
[3] = reproduction developmental, duration: 70 days, Sprague-Dawley, Body Weight: Medullary/papillary tubular and ductal hyperplasia in P0 and F1
[4] = subchronic, duration: 90 days, M, Sprague-Dawley, Hematological: Decreased hemoglobin (4.9%) and hematocrit (5.2%)
[5] = subchronic, duration: 90 days, Sprague-Dawley, Gastrointestinal: Necrosis of individual squamous cells in forestomach and hyperplasia and hyperkeratosis of limiting ridge + Renal: …
[6] = developmental, duration: 20 days, gavage, F, ICR, Developmental: Decreases in pup body weight / delays in eye opening, vaginal opening, and first estrous / decreases in ovarian follicles…
[7] = chronic, duration: 93 days, F, Endocrine: Thyroid follicular epithelial hypertrophy
[8] = chronic, duration: 93 days, M/F, Hematological: Decreased RBC, hemoglobin, and hematocrit / increased reticulocytes / erythroid hypertrophy in bone marrow and …
[9] = chronic, duration: 93 days, M/F, Respiratory: Degeneration/atrophy of nasal olfactory epithelium at ?100 mg/kg/day and respiratory metaplasia at 500 mg/kg/day
[10] = chronic, duration: 93 days, M, Body Weight: 19% decrease in body weight gain
[11] = developmental, duration: 20 days, F, Body Weight: Decreased maternal weight gain (19%) + Developmental: Decreased fetal weight (10%)
[12] = developmental, duration: 126 days, M/F, Developmental: Decreased pup body weight (17-18%) during lactation period
[13] = reproduction developmental, duration: 126 days, M, Body Weight: Decreased weight gain (12%) / decreased maternal weight gain during GDs 0-7 and increased maternal weight gain during …
[14] = subchronic, duration: 44 days, F, Immunotoxicological: Thymic atrophy in 3/9 females
[15] = subchronic, duration: 44 days, M, Hematological: Decreased hemoglobin levels / increased reticulocytes at 315 mg/kg/day
[16] = subchronic, duration: 90 days, M/F, Sprague-Dawley, Hematological: Slight decreases in RBC, hemoglobin, and hematocrit and increases in reticulocytes
[17] = developmental, duration: 13 days, gavage, F, CD1, Developmental: 12.5% decrease in birth weight and delayed eye opening at ?350 mg/kg/day / increased pup mortality (PND 0-3) and decreased …
[18] = developmental, duration: 13 days, gavage, F, CD1, Developmental: Increase in stillborn pups and 12.5% decrease in birth weight

O=S(=O)(O)C(F)(F)C(F)(F)C(F)(F)C(F)(F)F [Perfluorobutanesulfonic acid]
LOAEL (Rattus norvegicus; [1]): 2000 mg/kg-day
NOAEL (Rattus norvegicus; [1]): 1000 mg/kg-day
LOAEL (Rattus norvegicus; [2]): 1000 mg/kg-day
NOAEL (Rattus norvegicus; [2]): 300 mg/kg-day
NOAEL (Rattus norvegicus; reproduction developmental, duration: 70 days, Sprague-Dawley, Body Weight: Increased liver weight in males at ?300 mg/kg/day): 1000 mg/kg-day
LOAEL (Rattus norvegicus; [3]): 300 mg/kg-day
NOAEL (Rattus norvegicus; [3]): 100 mg/kg-day
NOAEL (Rattus norvegicus; short-term, duration: 28 days, Sprague-Dawley, Hepatic: Increased absolute and relative liver weight at 900 mg/kg/day + Immunotoxicological: No histological alterations + Neurological: No…): 900 mg/kg-day
LOAEL (Rattus norvegicus; [4]): 200 mg/kg-day
NOAEL (Rattus norvegicus; [4]): 60 mg/kg-day
NOAEL (Rattus norvegicus; subchronic, duration: 90 days, Sprague-Dawley): 600 mg/kg-day
LOAEL (Rattus norvegicus; [5]): 600 mg/kg-day
NOAEL (Rattus norvegicus; [5]): 200 mg/kg-day
NOAEL (Mus musculus; developmental, duration: 20 days, gavage, F, ICR): 500 mg/kg-day
LOAEL (Mus musculus; [6]): 200 mg/kg-day
NOAEL (Mus musculus; [6]): 50 mg/kg-day
NOAEL (Mus musculus; subchronic, duration: 6 weeks, diet, M, Hepatic: Decreased plasma triglyceride levels): 30 mg/kg-day

O=C(O)C(F)(F)C(F)(F)C(F)(F)C(F)(F)C(F)(F)F [Perfluorohexanoic acid]
LOAEL (Rattus norvegicus; acute, duration: 1 days, F, Sprague-Dawley, Death: 1/4 died at […] / 3/3 died at 5,000 mg/kg/day): 1750 mg/kg-day
LOAEL (Rattus norvegicus; acute, duration: 1 days, F, Sprague-Dawley, Neurological: Abnormal gait, salivation, ataxia, lethargy): 175 mg/kg-day
LOAEL (Rattus norvegicus; chronic, duration: 104 weeks, F, Sprague-Dawley, Death: 36, 43, 33, and 22% survival rate in females at 0, 5, 30, and 200 mg/kg/day, respectivel): 200 mg/kg-day
LOAEL (Rattus norvegicus; chronic, duration: 104 weeks, F, Sprague-Dawley, Hematological: 8.1% reduction in mean RBC count and 5.2% reduction in hemoglobin at 51 weeks / 23.6 and 53.6% increase in reticulocyte …): 200 mg/kg-day
NOAEL (Rattus norvegicus; chronic, duration: 104 weeks, M, Sprague-Dawley, Hematological: 8.1% reduction in mean RBC count and 5.2% reduction in hemoglobin at 51 weeks / 23.6 and 53.6% increase in reticulocyte …): 100 mg/kg-day
LOAEL (Rattus norvegicus; [7]): 500 mg/kg-day
NOAEL (Rattus norvegicus; [7]): 100 mg/kg-day
LOAEL (Rattus norvegicus; [8]): 500 mg/kg-day
NOAEL (Rattus norvegicus; [8]): 100 mg/kg-day
NOAEL (Rattus norvegicus; chronic, duration: 93 days, M/F, Hepatic: Hepatocellular hypertrophy in males at ?100 mg/kg/day and females at 500 mg/kg/day): 500 mg/kg-day
LOAEL (Rattus norvegicus; [9]): 100 mg/kg-day
NOAEL (Rattus norvegicus; [9]): 20 mg/kg-day
LOAEL (Rattus norvegicus; [10]): 500 mg/kg-day
NOAEL (Rattus norvegicus; [10]): 200 mg/kg-day
LOAEL (Rattus norvegicus; chronic, duration: 126 days, F): 500 mg/kg-day
NOAEL (Rattus norvegicus; chronic, duration: 126 days, F): 100 mg/kg-day
NOAEL (Rattus norvegicus; chronic, duration: 126 days, M/F): 500 mg/kg-day
LOAEL (Rattus norvegicus; [11]): 500 mg/kg-day
NOAEL (Rattus norvegicus; [11]): 100 mg/kg-day
LOAEL (Rattus norvegicus; [12]): 500 mg/kg-day
NOAEL (Rattus norvegicus; [12]): 100 mg/kg-day
NOAEL (Rattus norvegicus; reproduction developmental, duration: 44 days, M/F, Gastrointestinal: Stomach erosions/ulceration in dying or sacrificed in extremis rats administered 450 mg/kg/day for 4 days + Hepatic: …): 315 mg/kg-day
LOAEL (Rattus norvegicus; [13]): 100 mg/kg-day
NOAEL (Rattus norvegicus; [13]): 20 mg/kg-day
NOAEL (Rattus norvegicus; subchronic, duration: 44 days, F): 315 mg/kg-day
LOAEL (Rattus norvegicus; [14]): 315 mg/kg-day
NOAEL (Rattus norvegicus; [14]): 150 mg/kg-day
NOAEL (Rattus norvegicus; subchronic, duration: 44 days, M): 315 mg/kg-day
LOAEL (Rattus norvegicus; subchronic, duration: 44 days, M/F, Death: 8/30 deaths (includes rats sacrificed in extremis) during first 4 days of exposure): 450 mg/kg-day
LOAEL (Rattus norvegicus; [15]): 150 mg/kg-day
NOAEL (Rattus norvegicus; [15]): 50 mg/kg-day
LOAEL (Rattus norvegicus; [16]): 200 mg/kg-day
NOAEL (Rattus norvegicus; [16]): 50 mg/kg-day
NOAEL (Rattus norvegicus; subchronic, duration: 90 days, M/F, Sprague-Dawley, Hepatic: Centrilobular hepatocellular hypertrophy at 200 mg/kg/day): 200 mg/kg-day
LOAEL (Mus musculus; [17]): 350 mg/kg-day
NOAEL (Mus musculus; [17]): 100 mg/kg-day
LOAEL (Mus musculus; [18]): 175 mg/kg-day
NOAEL (Mus musculus; [18]): 35 mg/kg-day
